Data from PMC6284575 (2018).

Experiments:
[1] = test system: Tte class-I preQ1 riboswitch aptamer, U22Ap variant (RNA, riboswitch, 2-aminopurine at 22 (replacing U22)) CUGGGUCGCAGUAACCCCAGUUAACAAAACAAG; assay: 2-aminopurine fluorescence titration; conditions: 100 mM KCl, 2 mM MgCl2; 50 mM MOPS, pH 7.5, 293 K; 0.5 µM RNA; apparent
[2] = test system: Spn class-II preQ1 riboswitch aptamer, A11Ap variant (RNA, riboswitch, 2-aminopurine at 11 (replacing A11)) CUUGGUGCUUAGCUUCUUUCACCAAGCAUAUUACACGCGGAUAACCGCCAAAGGA; assay: 2-aminopurine fluorescence titration; conditions: 100 mM KCl, 2 mM MgCl2; 50 mM MOPS, pH 7.5, 293 K; 0.5 µM RNA; apparent

Structure (SMILES)	KD [1]	KD [2]
COCCOCCOCCNCc1c[nH]c2nc(N)[nH]c(=O)c12	0.922 µM	4.58 µM
NCCCCNCc1c[nH]c2nc(N)[nH]c(=O)c12	0.041 µM	0.148 µM
NCCCNCc1c[nH]c2nc(N)[nH]c(=O)c12	0.032 µM	0.097 µM
NCCCc1c[nH]c2nc(N)[nH]c(=O)c12	0.071 µM	2.83 µM
NCc1c[nH]c2nc(N)[nH]c(=O)c12	0.051 µM	0.43 µM
Nc1nc2[nH]cc(CNCCCCCNCc3c[nH]c4nc(N)[nH]c(=O)c34)c2c(=O)[nH]1	0.59 µM	1.03 µM
[N-]=[N+]=NCCCCNCc1c[nH]c2nc(N)[nH]c(=O)c12	0.088 µM	0.432 µM
[N-]=[N+]=NCCCNCc1c[nH]c2nc(N)[nH]c(=O)c12	0.03 µM	0.254 µM
[N-]=[N+]=NCCOCCNCc1c[nH]c2nc(N)[nH]c(=O)c12	0.167 µM	0.203 µM
